Test results reported in patent publication US20120157471A1, “BENZIMIDAZOLE DERIVATIVES” (PFIZER INC., priority 2009, published 2012).

How the values were obtained:
Gli-Luc/MEF cells (Smo) = test: Gli-Luc/MEF assay (Shh-stimulated luciferase reporter under the Gli response element); type: cell-based, mouse
Method in brief: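 IC50 derived from luminescence (Bright-Glo) after 48 h at 37° C, 5% CO2, with compound at […] (3-fold dilutions) added together with mouse Shh at 2 μg/mL final. Cells: MEFs from Gli-Luc transgenic mice.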

[1] = target: T1, human Smo (amino acids 181-787) (Homo sapiens, UniProt Q99835); test: Smo radioligand competition binding assay (displacement of 3H-PF-03451358 from HEK293 membranes); conditions: for inhibition at 0.05 µM: read-out: SMO % inh. @ 0.05 μM; for IC50: radioligand competition binding
T1 construct: expressed in transfected cells; membrane preparation
T1 sequence (Q99835 181-787): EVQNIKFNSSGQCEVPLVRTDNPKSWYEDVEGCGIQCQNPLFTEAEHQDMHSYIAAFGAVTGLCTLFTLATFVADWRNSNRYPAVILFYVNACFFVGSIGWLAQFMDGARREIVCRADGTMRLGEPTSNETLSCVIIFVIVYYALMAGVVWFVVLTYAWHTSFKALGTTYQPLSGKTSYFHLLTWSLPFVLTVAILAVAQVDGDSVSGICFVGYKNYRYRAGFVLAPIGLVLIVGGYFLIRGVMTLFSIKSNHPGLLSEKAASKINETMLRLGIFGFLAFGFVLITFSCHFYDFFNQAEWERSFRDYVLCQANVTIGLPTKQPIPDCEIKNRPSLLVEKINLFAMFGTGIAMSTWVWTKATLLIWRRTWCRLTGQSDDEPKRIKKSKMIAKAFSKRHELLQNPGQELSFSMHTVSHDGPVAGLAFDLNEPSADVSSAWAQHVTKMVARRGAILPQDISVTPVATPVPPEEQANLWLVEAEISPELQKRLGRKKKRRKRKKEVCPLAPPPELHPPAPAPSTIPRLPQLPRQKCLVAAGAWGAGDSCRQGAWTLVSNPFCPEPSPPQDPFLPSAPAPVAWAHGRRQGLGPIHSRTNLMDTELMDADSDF
Method in brief: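 Displacement of 3 nM tritiated PF-03451358 measured by filtration and scintillation counting after 2 h at room temperature, using 40 μg/well HEK293 membranes bearing cell-surface Smo 181-787, pH 7.5 buffer. Specific binding defined against 30 μM unlabelled ligand; IC50 via variable-slope sigmoidal fit.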

[2] = 0.05 μM test compound, displacement of 3H-PF-03451358

SMILES | IC50 (Gli-Luc/MEF cells (Smo); Mus musculus, MEF, 48 h) | inhibition at 0.05 µM [1, 2] | IC50 [1] | IC50 (Gli-Luc/MEF cells (Smo); 48 hours) | SMO % inh. @ 0.05 μM ([1]; 0.05 μM test compound, displacement of 3H-PF-03451358, 0.05 µM)
Cn1c(-c2cc(N3CCN(S(C)(=O)=O)CC3)ncc2F)nc2ccccc21 [Example D-6, 2-{5-fluoro-2-[4-(methylsulfonyl)piperazin-1-yl]pyridin-4-yl}-1-methyl-1H-benzimidazole] | 22 nM | 97% | 12 nM | – | –
CC(=O)N1CCN(c2cccc(-c3nc4ccccc4n3C)n2)CC1 [Example B-8, 2-[6-(4-acetylpiperazin-1-yl)pyridin-2-yl]-1-methyl-1H-benzimidazole] | 46 nM | 90% | 32 nM | – | –
CC(=O)NCC1CCCN(c2cc(-c3nc4ccccc4n3C)c(Cl)cn2)C1 (stereo not shown) [Example A-62, N-({1-[5-chloro-4-(1-methyl-1H-benzimidazol-2-yl)pyridin-2-yl]piperidin-3-yl}methyl)acetamide] | 21 nM | 95% | 24 nM | – | –
Cn1c(-c2cc(N3CCNC(=O)C3)ncc2Cl)nc2ccccc21 [Example A-174, 4-[5-chloro-4-(1-methyl-1H-benzimidazol-2-yl)pyridin-2-yl]piperazin-2-one] | 39 nM | 86% | 39 nM | – | –
Cc1nnc2n1CCN(c1cc(-c3nc4ccccc4n3C)c(Cl)cn1)C2 [Example A-117, 7-[5-chloro-4-(1-methyl-1H-benzimidazol-2-yl)pyridin-2-yl]-3-methyl-5,6,7,8-tetrahydro[1,2,4]triazolo[4,3-a]pyrazine] | 101 nM | 68% | – | – | –
Cn1c(-c2cc(N3CCN(CCS(C)(=O)=O)CC3)ncc2Cl)nc2ccccc21 [Example A-61, 2-(5-chloro-2-{4-[2-(methylsulfonyl)ethyl]piperazin-1-yl}pyridin-4-yl)-1-methyl-1H-benzimidazole] | – | – | 18 nM | 73 nM | 96%
COCc1nc(C2CCN(c3cc(-c4nc5ccccc5n4C)c(Cl)cn3)CC2)no1 [Example A-49, 2-(5-chloro-2-{4-[5-(methoxymethyl)-1,2,4-oxadiazol-3-yl]piperidin-1-yl}pyridin-4-yl)-1-methyl-1H-benzimidazole] | 7 nM | 100% | 11 nM | – | –
Cn1c(-c2cc(N3CCC(N4CCNC(=O)CC4)CC3)ncc2Cl)nc2ccccc21 [Example A-91, 1-{1-[5-chloro-4-(1-methyl-1H-benzimidazol-2-yl)pyridin-2-yl]piperidin-4-yl}-1,4-diazepan-5-one] | 16 nM | 88% | 55 nM | – | –
COC(=O)NC1CCN(c2cc(-c3nc4ccccc4n3C)ccn2)CC1 [Example A-19, methyl {1-[4-(1-methyl-1H-benzimidazol-2-yl)pyridin-2-yl]piperidin-4-yl}carbamate] | 15 nM | 84% | 25 nM | – | –
Cn1c(-c2cc(N3CCN(C(=O)C4CCOC4)CC3)ncc2Cl)nc2ccccc21 (stereo not shown) [Example A-191, 2-{5-chloro-2-[4-(tetrahydrofuran-3-ylcarbonyl)piperazin-1-yl]pyridin-4-yl}-1-methyl-1H-benzimidazole] | 1.7 nM | 101% | 6 nM | – | –
Cn1c(-c2ccnc(N3CCC(N4CCOC4=O)CC3)c2)nc2ccccc21 [Example A-15, 3-{1-[4-(1-methyl-1H-benzimidazol-2-yl)pyridin-2-yl]piperidin-4-yl}-1,3-oxazolidin-2-one] | 180 nM | 53% | 404 nM | – | –
Cn1c(-c2cc(N3CCC(C(=O)NCC(C)(C)O)CC3)ncc2Cl)nc2ccccc21 [Example A-212, 1-[5-chloro-4-(1-methyl-1H-benzimidazol-2-yl)pyridin-2-yl]-N-(2-hydroxy-2-methylpropyl)piperidine-4-carboxamide] | 29.1 nM | 99% | 12 nM | – | –
Cn1c(-c2cc(N3CCS(=O)(=O)CC3)ncc2Cl)nc2ccccc21 [Example A-89, 2-[5-chloro-2-(1,1-dioxidothiomorpholin-4-yl)pyridin-4-yl]-1-methyl-1H-benzimidazole] | 44 nM | 88% | 40 nM | – | –
Cn1c(-c2cc(N3CCC(OC(N)=O)CC3)ncc2Cl)nc2ccccc21 [Example A-203, 1-[5-chloro-4-(1-methyl-1H-benzimidazol-2-yl)pyridin-2-yl]piperidin-4-yl carbamate] | 12.5 nM | 94% | 11 nM | – | –
C[C@H]1CN(S(C)(=O)=O)CCN1c1cc(-c2nc3ccccc3n2C)c(Cl)cn1 [Example A-196, 2-{5-chloro-2-[(2S)-2-methyl-4-(methylsulfonyl)piperazin-1-yl]pyridin-4-yl}-1-methyl-1H-benzimidazole] | 6.7 nM | 99% | 8 nM | – | –
CNC(=O)NC1CN(c2cc(-c3nc4ccccc4n3C)c(Cl)cn2)C1 [Example A-180, 1-{1-[5-chloro-4-(1-methyl-1H-benzimidazol-2-yl)pyridin-2-yl]azetidin-3-yl}-3-methylurea] | 43 nM | 89% | 60 nM | – | –
CN(CCNS(C)(=O)=O)c1cc(-c2nc3ccccc3n2C)c(Cl)cn1 [Example A-145, N-(2-{[5-chloro-4-(1-methyl-1H-benzimidazol-2-yl)pyridin-2-yl](methyl)amino}ethyl)methanesulfonamide] | 22 nM | 97% | 22 nM | – | –
Cn1c(-c2cc(N3CC(c4ccncn4)C3)ncc2Cl)nc2ccccc21 [Example A-125, 2-[5-chloro-2-(3-pyrimidin-4-ylazetidin-1-yl)pyridin-4-yl]-1-methyl-1H-benzimidazole] | 135 nM | 57% | – | – | –
Cn1c(-c2cc(N3C[C@@H](CO)[C@@H](CO)C3)ncc2Cl)nc2ccccc21 [Example A-82, {(3R,4S)-1-[5-chloro-4-(1-methyl-1H-benzimidazol-2-yl)pyridin-2-yl]pyrrolidine-3,4-diyl}dimethanol] | 16 nM | 91% | 43 nM | – | –
Cn1c(-c2cc(N3CCC(O)(CO)CC3)ncc2Cl)nc2ccccc21 [Example A-69, 1-[5-chloro-4-(1-methyl-1H-benzimidazol-2-yl)pyridin-2-yl]-4-(hydroxymethyl)piperidin-4-ol] | 10 nM | 94% | 27 nM | – | –
Cn1c(-c2cc(N3C[C@H]4C[C@@H]3CN4S(C)(=O)=O)ncc2Cl)nc2ccccc21 [Example A-146, 2-{5-chloro-2-[(1R,4R)-5-(methylsulfonyl)-2,5-diazabicyclo[2.2.1]hept-2-yl]pyridin-4-yl}-1-methyl-1H-benzimidazole] | 92 nM | 75% | 202 nM | – | –
Cn1c(-c2ccnc(N3CCC(S(C)(=O)=O)CC3)c2)nc2ccccc21 [Example A-10, 1-methyl-2-{2-[4-(methylsulfonyl)piperidin-1-yl]pyridin-4-yl}-1H-benzimidazole] | 38 nM | 80% | 95 nM | – | –
